According to the NIST ThermoML archive (doi:10.1021/je700492k):

Experiment: excess molar enthalpy (molar enthalpy of mixing); xn = mol fraction of the nth substance listed
Settings: Liquid, Flow calorimetry

CC(=O)CC(C)=O [2,4-pentanedione] + CC(C)O
excess molar enthalpy [kcal/mol]
Settings	298.15 K	313.15 K	328.15 K
100 kPa, x1 = 0.0503	0.0985	0.101	0.103
100 kPa, x1 = 0.1501	0.235	0.247	0.262
100 kPa, x1 = 0.2502	0.321	0.344	0.365
100 kPa, x1 = 0.3499	0.374	0.403	0.43
100 kPa, x1 = 0.3997	0.39	0.421	0.448
100 kPa, x1 = 0.4498	0.401	0.432	0.459
100 kPa, x1 = 0.5001	0.405	0.436	0.462
100 kPa, x1 = 0.5507	0.403	0.432	0.457
100 kPa, x1 = 0.6	0.395	0.42	0.444
100 kPa, x1 = 0.6493	0.38	0.402	0.422
100 kPa, x1 = 0.7	0.356	0.376	0.393
100 kPa, x1 = 0.7999	0.285	0.296	0.305
100 kPa, x1 = 0.8503	0.234	0.238	0.246
100 kPa, x1 = 0.9504	0.0914	0.0934	0.0939
10000 kPa, x1 = 0.0502	0.0928	0.0986	0.103
10000 kPa, x1 = 0.1497	0.224	0.245	0.258
10000 kPa, x1 = 0.2496	0.312	0.341	0.362
10000 kPa, x1 = 0.3492	0.367	0.402	0.426
10000 kPa, x1 = 0.3989	0.384	0.42	0.445
10000 kPa, x1 = 0.449	0.395	0.431	0.456
10000 kPa, x1 = 0.4993	0.4	0.435	0.46
10000 kPa, x1 = 0.5498	0.399	0.431	0.455
10000 kPa, x1 = 0.5992	0.391	0.42	0.443
10000 kPa, x1 = 0.6486	0.376	0.401	0.422
10000 kPa, x1 = 0.6994	0.354	0.374	0.392
10000 kPa, x1 = 0.7993	0.284	0.294	0.304
10000 kPa, x1 = 0.8499	0.234	0.238	0.244
10000 kPa, x1 = 0.9503	0.0908	0.0922	0.0924

CC(=O)CC(C)=O [2,4-pentanedione] + CCCO
excess molar enthalpy [kcal/mol]
Settings	298.15 K	313.15 K	328.15 K
100 kPa, x1 = 0.0502	0.0721	0.0788	0.0869
100 kPa, x1 = 0.1502	0.184	0.205	0.224
100 kPa, x1 = 0.2502	0.259	0.289	0.321
100 kPa, x1 = 0.3504	0.311	0.347	0.385
100 kPa, x1 = 0.4001	0.327	0.364	0.404
100 kPa, x1 = 0.4502	0.338	0.374	0.416
100 kPa, x1 = 0.5006	0.344	0.38	0.421
100 kPa, x1 = 0.5501	0.344	0.378	0.419
100 kPa, x1 = 0.5997	0.339	0.371	0.41
100 kPa, x1 = 0.6495	0.327	0.355	0.392
100 kPa, x1 = 0.6994	0.309	0.333	0.366
100 kPa, x1 = 0.8006	0.248	0.261	0.286
100 kPa, x1 = 0.8504	0.202	0.211	0.233
100 kPa, x1 = 0.9493	0.0794	0.0835	0.0913
10000 kPa, x1 = 0.0502	0.0712	0.0775	0.0866
10000 kPa, x1 = 0.1504	0.181	0.201	0.222
10000 kPa, x1 = 0.2504	0.258	0.285	0.317
10000 kPa, x1 = 0.3507	0.309	0.343	0.379
10000 kPa, x1 = 0.4004	0.326	0.361	0.399
10000 kPa, x1 = 0.4505	0.338	0.371	0.413
10000 kPa, x1 = 0.501	0.344	0.375	0.418
10000 kPa, x1 = 0.5505	0.343	0.375	0.415
10000 kPa, x1 = 0.6001	0.339	0.367	0.405
10000 kPa, x1 = 0.6499	0.326	0.352	0.387
10000 kPa, x1 = 0.6997	0.308	0.329	0.36
10000 kPa, x1 = 0.8009	0.246	0.257	0.282
10000 kPa, x1 = 0.8506	0.201	0.207	0.228
10000 kPa, x1 = 0.9494	0.0791	0.0806	0.0894

CC(=O)CC(C)=O [2,4-pentanedione] + CCO
excess molar enthalpy [kcal/mol]
Settings	298.15 K	313.15 K	328.15 K
100 kPa, x1 = 0.0496	0.0592	0.0668	0.0752
100 kPa, x1 = 0.0992	0.109	0.124	0.142
100 kPa, x1 = 0.1496	0.156	0.175	0.2
100 kPa, x1 = 0.1992	0.193	0.219	0.25
100 kPa, x1 = 0.2491	0.225	0.255	0.29
100 kPa, x1 = 0.2988	0.251	0.283	0.324
100 kPa, x1 = 0.3482	0.273	0.309	0.353
100 kPa, x1 = 0.3988	0.29	0.327	0.373
100 kPa, x1 = 0.4484	0.301	0.34	0.387
100 kPa, x1 = 0.4988	0.309	0.348	0.395
100 kPa, x1 = 0.5476	0.312	0.349	0.396
100 kPa, x1 = 0.5991	0.309	0.345	0.39
100 kPa, x1 = 0.6484	0.3	0.334	0.377
100 kPa, x1 = 0.6976	0.286	0.316	0.355
100 kPa, x1 = 0.7494	0.264	0.29	0.324
100 kPa, x1 = 0.798	0.236	0.256	0.284
100 kPa, x1 = 0.849	0.196	0.211	0.233
100 kPa, x1 = 0.8992	0.146	0.154	0.169
100 kPa, x1 = 0.9485	0.0824	0.0848	0.0934
100 kPa, x1 = 0.9688	0.0518	0.0529	0.0585
10000 kPa, x1 = 0.0496	0.0575	0.0658	0.0749
10000 kPa, x1 = 0.0992	0.109	0.124	0.139
10000 kPa, x1 = 0.1496	0.153	0.174	0.198
10000 kPa, x1 = 0.1992	0.191	0.216	0.246
10000 kPa, x1 = 0.2491	0.223	0.253	0.287
10000 kPa, x1 = 0.2988	0.249	0.282	0.321
10000 kPa, x1 = 0.3482	0.27	0.306	0.348
10000 kPa, x1 = 0.3988	0.287	0.325	0.369
10000 kPa, x1 = 0.4484	0.299	0.338	0.382
10000 kPa, x1 = 0.4988	0.307	0.345	0.391
10000 kPa, x1 = 0.5476	0.309	0.347	0.391
10000 kPa, x1 = 0.5991	0.306	0.342	0.384
10000 kPa, x1 = 0.6484	0.298	0.332	0.371
10000 kPa, x1 = 0.6976	0.284	0.315	0.351
10000 kPa, x1 = 0.7494	0.262	0.289	0.317
10000 kPa, x1 = 0.798	0.234	0.256	0.276
10000 kPa, x1 = 0.849	0.195	0.211	0.224
10000 kPa, x1 = 0.8992	0.143	0.153	0.163
10000 kPa, x1 = 0.9485	0.0813	0.084	0.0911
10000 kPa, x1 = 0.9688	0.0514	0.0524	0.0568

CC(=O)CC(C)=O [2,4-pentanedione] + CO
excess molar enthalpy [kcal/mol]
Settings	298.15 K	313.15 K	328.15 K
100 kPa, x1 = 0.0502	0.0494	0.0583	0.0658
100 kPa, x1 = 0.0995	0.0896	0.107	0.122
100 kPa, x1 = 0.1494	0.125	0.15	0.172
100 kPa, x1 = 0.1998	0.154	0.187	0.215
100 kPa, x1 = 0.2496	0.178	0.217	0.251
100 kPa, x1 = 0.3006	0.199	0.243	0.282
100 kPa, x1 = 0.3504	0.215	0.263	0.307
100 kPa, x1 = 0.3995	0.227	0.278	0.325
100 kPa, x1 = 0.4492	0.237	0.289	0.338
100 kPa, x1 = 0.499	0.242	0.295	0.346
100 kPa, x1 = 0.5509	0.244	0.296	0.348
100 kPa, x1 = 0.5989	0.241	0.293	0.342
100 kPa, x1 = 0.6509	0.233	0.284	0.33
100 kPa, x1 = 0.7006	0.221	0.269	0.312
100 kPa, x1 = 0.7507	0.204	0.248	0.286
100 kPa, x1 = 0.8006	0.179	0.219	0.25
100 kPa, x1 = 0.85	0.147	0.183	0.205
100 kPa, x1 = 0.8983	0.109	0.136	0.152
100 kPa, x1 = 0.95	0.057	0.0741	0.0828
10000 kPa, x1 = 0.0501	0.0479	0.058	0.0654
10000 kPa, x1 = 0.0994	0.0879	0.107	0.121
10000 kPa, x1 = 0.1493	0.123	0.15	0.171
10000 kPa, x1 = 0.1997	0.152	0.187	0.214
10000 kPa, x1 = 0.2494	0.176	0.217	0.25
10000 kPa, x1 = 0.3004	0.196	0.243	0.28
10000 kPa, x1 = 0.3502	0.213	0.263	0.304
10000 kPa, x1 = 0.3993	0.225	0.277	0.323
10000 kPa, x1 = 0.449	0.235	0.289	0.335
10000 kPa, x1 = 0.4988	0.24	0.294	0.343
10000 kPa, x1 = 0.5507	0.242	0.296	0.345
10000 kPa, x1 = 0.5987	0.24	0.292	0.34
10000 kPa, x1 = 0.6507	0.233	0.283	0.328
10000 kPa, x1 = 0.7005	0.221	0.269	0.308
10000 kPa, x1 = 0.7505	0.204	0.248	0.282
10000 kPa, x1 = 0.8004	0.179	0.219	0.246
10000 kPa, x1 = 0.8498	0.147	0.182	0.203
10000 kPa, x1 = 0.8982	0.108	0.135	0.151
10000 kPa, x1 = 0.9499	0.0569	0.0725	0.0819
